Reference: US7374898B2, “Peptide inhibitors against seprase” (The Research Foundation of State University of New York, priority 2004, dated 2008)
“Also recorded” adds a separate entry of the source. Where two headings read alike, the source gives them in different places. Each block holds one molecule with its values, some of them ahead of it. Where a SMILES comes first, the peptide text is derived from it. Bridges are numbered along the chain shown (N, C = ends).

Tests used:
[1] = test system: LOX cells; experiment: Peptide binding to seprase-expressing LOX cells (ELISA and immunofluorescence); assay type: cell-based, human
Description: (§1) It was also determined if synthetic peptides targeting seprase could bind seprase-expressing LOX cells but not seprase-negative tumor cells including the human melanoma cell line SKMEL-28.

[2] = test system: SKMEL-28 cells; experiment: Peptide binding to seprase-negative SKMEL-28 cells (ELISA and immunofluorescence); assay type: cell-based, human
Description: as §1

[3] = target: T1, seprase (Homo sapiens, UniProt Q12884); experiment: Gelatinolytic activity of seprase, soluble fluorescent DQ-gelatin assay; assay type: biochemical; parameters: Native seprase, which was isolated from LOX cells grown on type I collagen films according to previously described procedures; endogenous in cells; host or cells: LOX human amelanotic melanoma cells; WGA-enriched fraction, immuno-captured with mAb D8; details: DQ-gelatin 25 μg/ml, 37° C., 16 hours, FIG. 1B
T1 sequence (Q12884 1-760): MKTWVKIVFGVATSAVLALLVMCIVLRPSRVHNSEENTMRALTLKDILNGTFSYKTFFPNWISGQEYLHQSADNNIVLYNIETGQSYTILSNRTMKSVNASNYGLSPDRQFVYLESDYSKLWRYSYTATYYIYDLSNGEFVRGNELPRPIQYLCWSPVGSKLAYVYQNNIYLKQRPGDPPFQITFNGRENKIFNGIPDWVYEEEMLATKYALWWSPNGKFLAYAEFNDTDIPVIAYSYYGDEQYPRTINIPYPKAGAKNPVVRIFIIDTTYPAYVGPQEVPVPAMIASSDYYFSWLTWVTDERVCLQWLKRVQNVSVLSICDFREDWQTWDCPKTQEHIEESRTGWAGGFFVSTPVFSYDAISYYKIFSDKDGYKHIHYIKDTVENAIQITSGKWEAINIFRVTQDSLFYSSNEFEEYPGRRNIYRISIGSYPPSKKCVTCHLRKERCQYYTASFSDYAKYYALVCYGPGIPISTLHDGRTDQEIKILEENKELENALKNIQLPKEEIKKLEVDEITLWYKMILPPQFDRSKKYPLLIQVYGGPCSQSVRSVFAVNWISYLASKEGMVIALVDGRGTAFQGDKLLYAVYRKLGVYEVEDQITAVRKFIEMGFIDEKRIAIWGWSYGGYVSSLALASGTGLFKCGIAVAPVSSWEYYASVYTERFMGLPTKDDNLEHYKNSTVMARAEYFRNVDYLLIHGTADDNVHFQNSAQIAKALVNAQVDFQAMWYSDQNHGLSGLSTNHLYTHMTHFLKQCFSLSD

[4] = target: T1, seprase; experiment: Prolyl dipeptidase activity of seprase, Gly-Pro-pNA substrate; details: for inhibition of the prolyl dipeptidase activity of seprase: Gly-Pro-pNA 2 mM, different concentrations of peptides; for inhibition of seprase: FIG. 1
[5] = test system: LOX cells; experiment: Overall collagen degradation by cells, Bodipy FL C5 labelled type I collagen microtiter plate; assay type: cell-based, human; details: 16 hours, 37° C., FIG. 3A
Description: The assay involves coating 96-well microtiter plates with Bodipy FL C5 labelled type I collagen films. It allows direct measurement of collagen degradation by cells, as the release of fluorescent intensity is in proportion to the degree of collagen degradation. To prepare collagen films, collagen solution mixed with DMEM (1:4 v/v) was coated as a thin layer in each well of a 96-well microtiter plate, and incubated for 1 h at 37° C. to allow gel formation. Labeling of collagen films involved borate buffer, pH 8.3, containing 3 mg of BODIPY FL C5 (Molecular Probes) at 25° C. To determine collagen degradation by cells, LOX cells (10^4/well) were seeded in a 96-well microtiter plate pre-coated with Bodipy FL C5 labeled type I collagen, and incubated in the presence of different concentrations of inhibitors at 37° C. for 16 hours. The increase in fluorescence at 485 nm (excitation)/538 nm (emission) is proportional to the ability of cells to degrade fluorescently labeled collagen films. Change in fluorescent intensity was monitored with a fluorescence microtiter plate reader (Molecular Devices, Sunnyvale, Calif.).

[6] = test system: GFP-LOX cells; experiment: Melanoma growth and metastasis to lung and liver in nude mice co-inoculated with GFP-LOX cells; assay type: in vivo, NCR Nude mice; details: CDMWERVSRC 300 μM or control peptide 500 μM, 28 days
Description: Number of GFP-melanoma cells or micrometastases in lung (J) and liver (K) tissues freshly excised from animals was counted per 3×10^5 μm^2 under an epifluorescence microscope.
We next determined whether [sequence] […] GFP-tagged LOX cells, 2×10^5 cells/mouse, were co-inoculated subcutaneously with peptides into flanks of NCR Nude mice, and followed by daily injections of peptide solutions into sites 2 mm adjacent to tumors. […] GFP-tagged LOX cells, 2×10^5 cells suspended in 100 ml of serum-free DMEM, that were pre-incubated with [sequence] [SEQ ID NO: 3] (300 μM) or control peptides (500 μM) were injected subcutaneously into flanks of NCR Nude mice (female; Taconic Co., Germantown, N.Y.). In addition, [sequence] [SEQ ID NO: 3] (300 μM) and control peptides (500 μM) were daily injected into the subcutaneous tissue 2 mm adjacent to tumor sites. Total of 3 mice were used for each experimental or control group. Tumors were measured twice a week. After 28 days, mice were sacrificed by anesthetic overdose. Tissues including primary tumor, lung and liver were removed and examined for GFP tagged melanoma cells and micrometastases by epifluorescence microscopy, followed by enumeration and photography. Melanoma cells in lung and liver were calculated by counting number of GFP-melanoma cells or micrometastases in these tissues freshly excised from animals in a 3×10 μm^2 area in 10 different regions.

[7] = test system: human ovarian tumor cells
[8] = test system: LOX cells; experiment: Cell viability, apoptosis and cell death assays on collagen films; assay type: cell-based; parameters: dose or concentration left out as unconfirmed
Description: In parallel to the assay assessing the overall collagen degradation by LOX cells described above (FIG. 3A), LOX cells grown on collagen films were determined for their physiological responses to peptide or other protease inhibitors in terms of cell viability (FIG. 3B), apoptosis (FIG. 3C) and cell death (FIG. 3D). Cell viability, apoptosis and cell death assays were performed using Molecular Probes (Eugene, Oreg.) Live/Dead Viability/Cytotoxicity kit and Vybrant Apoptosis Assay Kit #4 and followed the manufacturer's instruction. LOX cells (10^4/well) were cultured on a type I collagen coated 96-well microtiter plate in the presence of inhibitors at 37° C. overnight. After washing gently with PBS, dyes for the cell viability assay (Calcein Am, 2 mM, only stained live cells) and for the apoptosis assay (YO-PRO [a fluorescent nuclear dye], 0.25 mM, stained apoptotic cells; ethidium homodimer-1, 4 mM, stained dead cells) were added and incubated at 25° C. for 45 min. The fluorescence intensity was read at the wavelength of 485 nm/538 nm or 544 nm/612 nm. In the LIVE/DEAD Viability/Cytotoxicity Assay, high fluorescent intensity indicates high number of viable cells, whereas in the Vybrant Apoptosis Assay, high fluorescent intensity units indicate high number of apoptotic or dead cells.

[9] = target: matrix metalloproteinase; details: supplier information; read-out: Ki of matrix metalloproteinase inhibitor; cited from earlier work
[10] = target: DPP4 (Homo sapiens, UniProt P27487); details: reported values; read-out: KiDPP4 of reported DPP4 competitive inhibitors; cited from earlier work
[11] = test system: Human ovarian cancer cells isolated from mouse ascites; experiment: In vitro extracellular matrix degradation and ingestion assay on TRITC-type I collagen films; assay type: cell-based; details: at 1 mM, 16 to 24 hours
Description: It consists of seeding tumor cells on fluorescently labeled type I collagen films and determining the ability of tumor cells to degrade and ingest the fluorescently labeled extracellular matrix. Two inhibitors, H-Ile-Pro-NHO-PNB (DPP4-specific) and the cyclic peptide [sequence] [SEQ ID NO:3] (seprase-specific) were used. Human ovarian cancer cells isolated from mouse ascites as described in Example 7 were seeded on TRITC-type I collagen films.

Sequence of DPP4 (P27487 whole entry, species assumed): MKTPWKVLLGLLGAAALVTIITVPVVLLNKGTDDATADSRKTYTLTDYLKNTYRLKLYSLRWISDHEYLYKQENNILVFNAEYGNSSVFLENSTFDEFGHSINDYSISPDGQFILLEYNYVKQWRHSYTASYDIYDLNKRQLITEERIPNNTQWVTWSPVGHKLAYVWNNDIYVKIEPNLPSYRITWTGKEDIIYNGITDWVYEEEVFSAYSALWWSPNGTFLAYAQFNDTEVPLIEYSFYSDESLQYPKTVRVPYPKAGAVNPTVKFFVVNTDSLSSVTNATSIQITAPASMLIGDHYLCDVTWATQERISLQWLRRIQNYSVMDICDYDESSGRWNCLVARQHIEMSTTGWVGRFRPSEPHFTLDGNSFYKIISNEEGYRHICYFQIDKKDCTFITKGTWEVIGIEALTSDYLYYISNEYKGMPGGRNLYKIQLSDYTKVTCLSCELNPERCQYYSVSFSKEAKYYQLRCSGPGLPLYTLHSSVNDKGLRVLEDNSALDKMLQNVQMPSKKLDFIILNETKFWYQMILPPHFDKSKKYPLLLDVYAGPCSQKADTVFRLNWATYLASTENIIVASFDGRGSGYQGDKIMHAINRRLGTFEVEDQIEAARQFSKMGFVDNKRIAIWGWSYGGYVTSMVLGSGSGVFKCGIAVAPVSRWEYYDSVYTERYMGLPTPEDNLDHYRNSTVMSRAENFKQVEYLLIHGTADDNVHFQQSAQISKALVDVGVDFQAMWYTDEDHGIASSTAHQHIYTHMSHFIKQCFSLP

Molecule: GGAGDMWERVSRG
binding to LOX cells [1]: strong binding
binding to SKMEL-28 cells [2]: did not bind

Molecule: CCC(C)C(N)C(=O)N1CCSC1 (stereo not shown) [H-Ile-Thia]
inhibition of the gelatinolytic activity of seprase [3]: did not inhibit
inhibition of the prolyl dipeptidase activity of seprase ([4]; FIG. 1A): inhibit
Ki ([4]; read-out: Ki, prolyl dipeptidase activity of seprase, PBS pH 7.4, 37° C., 8.0 mM Gly-Pro-pNA, FIG. 1D): 100 nM

inhibitory effect relative to DMWERVSR ([4]; % of the effect of DMWERVSR, FIG. 1A): less than 10%
Molecule: REMSDWRV
inhibition of overall collagen degradation by LOX cells (words) [5]: did not

inhibition of the prolyl dipeptidase activity of seprase ([4]; FIG. 1A): no inhibition
Molecule: GRGTWN
inhibition of overall collagen degradation by LOX cells (words) [5]: did not

Molecule: RKISASEFDRPLR [control peptide]
binding to LOX cells [1]: not
binding to SKMEL-28 cells [2]: did not bind

inhibition of the gelatinolytic activity of seprase [3]: do not
Molecule: YISGR [control peptide]
formation of liver micrometastases [6]: did not
formation of lung micrometastases [6]: did not
formation of LOX-derived human melanoma ([6]; co-inoculated s.c. and daily injections): did not

inhibition of seprase [4]: potent inhibitors
activity in inhibiting seprase prolyl dipeptidase compared with other inhibitors ([4]; FIG. 1A): more active than DLDYLSKF
inhibition of the prolyl dipeptidase activity of seprase ([4]; FIG. 1A): inhibit
Molecule: DMWERVSR

inhibition of seprase [4]: potent inhibitors
inhibition of the prolyl dipeptidase activity of seprase ([4]; FIG. 1A): inhibit
Molecule: DLDYLSKF

Molecule: CSCC[C@@H]1NC(=O)[C@H](CC(=O)O)NC(=O)[C@@H](N)CSSC[C@@H](C(=O)O)NC(=O)[C@H](CCCNC(=N)N)NC(=O)[C@H](CO)NC(=O)[C@H](C(C)C)NC(=O)[C@H](CCCNC(=N)N)NC(=O)[C@H](CCC(=O)O)NC(=O)[C@H](Cc2c[nH]c3ccccc23)NC1=O (H-CDMWERVSRC-OH; disulfide 1-10 (inferred); N-terminus and C-terminus assumed)
inhibition of growth in ascites and on peritoneum ([7]; mouse, in vivo, ip): more than 90%
toxicity to cells [8]: not toxic or lethal to cells
increase of catalytic Km value [4]: 5 times
inhibition at 100 µM ([4]; read-out: inhibition of seprase prolyl dipeptidase activity): > 60%

inhibition of the prolyl dipeptidase activity of seprase ([4]; FIG. 1A): no inhibition
Molecule: GGYR

Molecule: CC(C)(C)[C@H](NC(=O)[C@H](CCCc1ccc(Cl)cc1)CC(=O)NO)C(N)=O [CT-1746]
inhibition of overall collagen degradation by LOX cells (words) [5]: inhibited the overall collagen degradation by LOX cells in a dose dependent manner; also recorded: strongest inhibitory effect
Ki [9]: 122 nM

Molecule: N[C@@H](CCC(=O)NCC(=O)NCC(=O)NCC(=O)NCC(=O)NCC(=O)O)C(=O)N1CCSC1 [H-Glu(Gly5)-Thia]
Ki [10]: 80 nM
inhibition of the prolyl dipeptidase activity of seprase ([4]; FIG. 1A): inhibit

inhibition of the gelatinolytic activity of seprase [3]: did not inhibit
Molecule: CC[C@H](C)[C@H](N)C(=O)N1CCC[C@H]1C(=O)NOC(=O)c1ccc([N+](=O)[O-])cc1 [H-Ile-Pro-NHO-PNB]
inhibition of growth in ascites and on peritoneum ([7]; i.p. human ovarian tumor cells, 8 weeks, equimolecular amounts): 50%
block of degradation and ingestion of collagen film [11]: 50%
inhibition of overall collagen degradation by LOX cells (words) [5]: inhibited the overall collagen degradation by LOX cells in a dose dependent manner
inhibition of overall collagen degradation by LOX cells (words) ([5]; listed as H-Ile-Pro-NHO-pNB): weak
